Experimental findings from patent US20200069552A1, “COSMETIC AND/OR DERMATOLOGICAL COMPOSITION, AND USES THEREOF IN THE COSMETIC FIELD AND IN THE ADJUVANT TREATMENT OF DERMATOLOGICAL PATHOLOGIES” (ISTITUTO GANASSINI S.P.A. DI RICERCHE BIOCHIMICHE, priority 2017, published 2020) are described below.

The series is described as follows: Viscosity at 25° C. with a Brookfield viscometer DV-I. The series is classed as physicochemical.

For the compound `CC(=O)Oc1c(C)c(C)c2c(c1C)CCC(C)(CCC[C@H](C)CCC[C@H](C)CCCC(C)C)O2` (some centres unmarked) [Comp A, Vitamin E acetate], the “viscosity, in words” value (25° C.) is given as “extremely fluid”. Besides, the “Viscosity at 25° C.” value (Rotor G = 2, 10 rpm) came to 3200 cP.
